From ChEMBL document CHEMBL5042556, “Lead Optimization to Advance Protease-Activated Receptor-1 Antagonists in Early Discovery” (J Med Chem, 2022)
Blank lines part the entries; values can stand above or below the compound they belong to.

Assays:
[1] = biological target: T1, Proteinase-activated receptor 1 (Homo sapiens, UniProt P25116); assay: Antagonist activity at human PAR-1 expressed in HEK293 cells assessed as reduction in TRAP induced calcium signal at 3 uM by FLIPR analysis; type: functional, cell-based
T1 sequence (P25116 whole entry): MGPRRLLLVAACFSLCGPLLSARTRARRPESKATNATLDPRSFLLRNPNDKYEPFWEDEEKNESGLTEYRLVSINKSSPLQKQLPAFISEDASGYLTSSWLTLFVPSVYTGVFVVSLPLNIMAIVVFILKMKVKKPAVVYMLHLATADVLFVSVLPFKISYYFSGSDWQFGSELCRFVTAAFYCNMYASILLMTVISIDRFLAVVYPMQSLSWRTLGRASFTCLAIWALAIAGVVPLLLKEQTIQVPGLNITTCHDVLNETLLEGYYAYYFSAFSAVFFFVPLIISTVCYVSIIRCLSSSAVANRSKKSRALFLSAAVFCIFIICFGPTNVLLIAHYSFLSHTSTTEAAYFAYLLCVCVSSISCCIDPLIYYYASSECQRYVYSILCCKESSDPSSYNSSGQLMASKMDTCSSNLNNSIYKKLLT

[2] = biological target: T2, Voltage-gated inwardly rectifying potassium channel KCNH2 (Homo sapiens, UniProt Q12809); assay: Inhibition of [35S]MK-499 binding to hERG expressed in HEK293 cells; type: toxicity, cell-based
T2 sequence (Q12809 whole entry): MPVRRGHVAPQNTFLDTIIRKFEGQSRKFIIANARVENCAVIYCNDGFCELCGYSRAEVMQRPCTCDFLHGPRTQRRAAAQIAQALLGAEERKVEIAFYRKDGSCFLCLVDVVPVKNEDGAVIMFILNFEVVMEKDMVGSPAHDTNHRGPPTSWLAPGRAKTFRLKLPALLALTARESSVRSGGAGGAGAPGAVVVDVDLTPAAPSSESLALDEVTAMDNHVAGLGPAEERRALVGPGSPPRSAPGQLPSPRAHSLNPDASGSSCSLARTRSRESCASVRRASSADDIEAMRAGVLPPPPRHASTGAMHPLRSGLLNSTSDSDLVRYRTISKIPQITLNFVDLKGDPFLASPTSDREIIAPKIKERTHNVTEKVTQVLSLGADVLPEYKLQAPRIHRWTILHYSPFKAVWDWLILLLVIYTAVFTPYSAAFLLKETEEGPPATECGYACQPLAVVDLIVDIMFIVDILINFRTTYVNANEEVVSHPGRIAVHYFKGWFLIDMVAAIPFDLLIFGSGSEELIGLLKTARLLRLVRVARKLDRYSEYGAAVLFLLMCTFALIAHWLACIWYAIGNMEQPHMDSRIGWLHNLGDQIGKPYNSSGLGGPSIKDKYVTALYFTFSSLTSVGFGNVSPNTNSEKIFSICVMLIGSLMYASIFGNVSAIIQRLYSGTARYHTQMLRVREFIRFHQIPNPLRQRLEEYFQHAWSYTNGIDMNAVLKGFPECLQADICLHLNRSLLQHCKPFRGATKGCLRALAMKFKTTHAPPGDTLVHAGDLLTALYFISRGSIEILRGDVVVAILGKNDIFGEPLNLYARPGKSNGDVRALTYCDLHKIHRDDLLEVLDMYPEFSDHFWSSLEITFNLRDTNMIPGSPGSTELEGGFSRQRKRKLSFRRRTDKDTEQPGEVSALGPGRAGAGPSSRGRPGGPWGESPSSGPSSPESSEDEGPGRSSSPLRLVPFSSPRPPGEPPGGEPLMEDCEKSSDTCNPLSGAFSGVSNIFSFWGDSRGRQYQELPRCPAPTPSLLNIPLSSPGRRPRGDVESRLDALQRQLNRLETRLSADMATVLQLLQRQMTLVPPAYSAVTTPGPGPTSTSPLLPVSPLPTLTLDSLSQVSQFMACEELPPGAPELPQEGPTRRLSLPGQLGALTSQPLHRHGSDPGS

[3] = MRT in cynomolgus monkey at 0.3 mg/kg, iv; type: ADME, organism-based, Macaca fascicularis; details: in vivo
[4] = MRT in rat at 0.5 mg/kg, iv; type: ADME, organism-based; details: in vivo
[5] = MRT in cynomolgus monkey at 0.3 mg/kg, po; type: ADME, organism-based, Macaca fascicularis; details: in vivo
[6] = MRT in rat at 1 mg/kg, iv; type: ADME, organism-based; details: in vivo
[7] = Ex vivo inhibition of PAR-1 in cynomolgus monkey whole blood assessed as inhibition of TRAP-induced platelet aggregation at 1 mg/kg, po measured after 24 hrs; type: functional; details: Macaca fascicularis
[8] = MRT in intravenously dosed dog; type: ADME, organism-based, Canis lupus familiaris; details: in vivo, iv
[9] = Volume of distribution in rat at 0.3 mg/kg, iv; type: ADME, organism-based; details: in vivo
[10] = MRT in intravenously dosed cynomolgus monkey; type: ADME, organism-based, Macaca fascicularis; details: in vivo, iv
[11] = Clearance in dog hepatocyte measured per 10^6 cells; type: ADME, cell-based, Canis lupus familiaris; details: hepatocytes
[12] = Clearance in rat at 3 mg/kg, iv; type: ADME, organism-based; details: in vivo
[13] = Unbound clearance in intravenously dosed cynomolgus monkey; type: ADME, organism-based, Macaca fascicularis; details: in vivo, iv
[14] = Unbound volume of distribution in rat at 3 mg/kg, iv; type: ADME, organism-based; details: in vivo
[15] = Oral bioavailability in rat; type: ADME, organism-based; details: in vivo
[16] = Unbound volume of distribution in intravenously dosed dog; type: ADME, organism-based, Canis lupus familiaris; details: in vivo, iv
[17] = Clearance in mouse hepatocyte measured per 10^6 cells; type: ADME, cell-based; details: hepatocytes
[18] = Apparent permeability in MDCKII-LE cells; type: ADME, cell-based, Canis lupus familiaris; details: dog, MDCK
[19] = Volume of distribution in intravenously dosed cynomolgus monkey; type: ADME, organism-based, Macaca fascicularis; details: in vivo, iv
[20] = Clearance in rat hepatocyte measured per 10^6 cells; type: ADME, cell-based; details: hepatocytes
P-glycoprotein (ABCB1) = P-glycoprotein (ABCB1) (Homo sapiens, UniProt P08183); assay: Effect on human P-glycoprotein expressed in MDCK cells assessed as efflux ratio of apparent permeability across basolateral to apical side over apical to basolateral side (reference value: 0.6 to 0.8); type: ADME, cell-based, MDCKII-LE; details: MDCK-MDR1
P-glycoprotein (ABCB1), sequence (P08183 whole entry): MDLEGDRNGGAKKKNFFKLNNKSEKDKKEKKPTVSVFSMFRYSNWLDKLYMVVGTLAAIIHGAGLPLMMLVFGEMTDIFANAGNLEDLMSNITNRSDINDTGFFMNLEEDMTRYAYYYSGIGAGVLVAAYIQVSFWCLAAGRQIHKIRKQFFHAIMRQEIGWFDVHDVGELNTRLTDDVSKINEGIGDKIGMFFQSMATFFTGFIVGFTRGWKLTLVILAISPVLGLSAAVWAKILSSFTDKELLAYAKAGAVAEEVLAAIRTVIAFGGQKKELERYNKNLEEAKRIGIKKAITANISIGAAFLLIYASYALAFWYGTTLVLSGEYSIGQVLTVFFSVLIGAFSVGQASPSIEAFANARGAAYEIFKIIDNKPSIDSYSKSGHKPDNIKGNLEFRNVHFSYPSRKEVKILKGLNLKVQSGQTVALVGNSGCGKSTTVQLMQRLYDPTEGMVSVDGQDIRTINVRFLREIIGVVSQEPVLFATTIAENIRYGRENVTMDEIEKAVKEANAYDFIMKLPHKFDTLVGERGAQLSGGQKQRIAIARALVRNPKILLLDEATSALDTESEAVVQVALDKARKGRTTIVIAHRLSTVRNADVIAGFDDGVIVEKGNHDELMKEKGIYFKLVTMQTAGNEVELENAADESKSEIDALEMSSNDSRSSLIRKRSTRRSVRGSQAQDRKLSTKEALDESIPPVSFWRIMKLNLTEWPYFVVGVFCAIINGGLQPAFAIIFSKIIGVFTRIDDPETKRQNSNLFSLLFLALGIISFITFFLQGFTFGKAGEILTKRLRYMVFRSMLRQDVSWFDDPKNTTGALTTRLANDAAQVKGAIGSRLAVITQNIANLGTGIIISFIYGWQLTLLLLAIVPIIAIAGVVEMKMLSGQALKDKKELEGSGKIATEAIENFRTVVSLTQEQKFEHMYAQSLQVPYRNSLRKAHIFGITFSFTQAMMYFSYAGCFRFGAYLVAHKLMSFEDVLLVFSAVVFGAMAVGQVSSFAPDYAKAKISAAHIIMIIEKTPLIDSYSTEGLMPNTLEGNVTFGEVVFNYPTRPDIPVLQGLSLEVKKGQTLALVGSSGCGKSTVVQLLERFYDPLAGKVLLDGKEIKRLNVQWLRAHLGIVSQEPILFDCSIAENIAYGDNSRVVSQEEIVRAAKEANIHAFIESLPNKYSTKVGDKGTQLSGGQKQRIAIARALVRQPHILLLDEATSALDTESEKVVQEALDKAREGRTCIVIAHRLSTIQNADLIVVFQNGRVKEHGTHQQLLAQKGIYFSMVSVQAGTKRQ

[21] = Plasma protein binding in cynomolgus monkey assessed as unbound fraction; type: ADME, cell-free, Macaca fascicularis
[22] = Oral bioavailability in cynomolgus monkey; type: ADME, organism-based, Macaca fascicularis; details: in vivo
[23] = Plasma protein binding in dog assessed as unbound fraction; type: ADME, cell-free, Canis lupus familiaris
[24] = Ex vivo inhibition of PAR-1 in cynomolgus monkey whole blood assessed as inhibition of TRAP-induced platelet aggregation at 0.3 mg/kg, po measured after 24 hrs; type: functional; details: Macaca fascicularis
[25] = Clearance in intravenously dosed cynomolgus monkey; type: ADME, organism-based, Macaca fascicularis; details: in vivo, iv
[26] = Clearance in human hepatocyte measured per 10^6 cells; type: ADME, cell-based; details: hepatocytes
[27] = Plasma protein binding in rat assessed as unbound fraction; type: ADME, cell-free
P-glycoprotein = assay: Effect on rat P-glycoprotein expressed in MDCK cells assessed as efflux ratio of apparent permeability across basolateral to apical side over apical to basolateral side (reference value: 0.6 to 0.8); type: ADME, cell-based, MDCKII-LE; details: MDCK-MDR1
[28] = Unbound clearance in intravenously dosed dog; type: ADME, organism-based, Canis lupus familiaris; details: in vivo, iv
[29] = Clearance in intravenously dosed dog; type: ADME, organism-based, Canis lupus familiaris; details: in vivo, iv
[30] = Oral bioavailability in dog; type: ADME, organism-based, Canis lupus familiaris; details: in vivo
[31] = MRT in rat at 3 mg/kg, iv; type: ADME, organism-based; details: in vivo
[32] = Unbound volume of distribution in intravenously dosed cynomolgus monkey; type: ADME, organism-based, Macaca fascicularis; details: in vivo, iv
[33] = biological target: T2, Voltage-gated inwardly rectifying potassium channel KCNH2; assay: Inhibition of [35S]MK-499 binding to hERG expressed in HEK293 cells at 60 uM; type: toxicity, cell-based
[34] = Unbound clearance in rat at 3 mg/kg, iv; type: ADME, organism-based; details: in vivo

Structure (SMILES): C[C@@H]1[C@@H](C)[C@@H]2CNC[C@@]23C(=O)O[C@H](C)[C@H]3[C@H]1/C=C/c1ccc(-c2ccccc2C#N)cn1
IC50 [1]: 14 nM | IC50 [2]: 1300 nM

Structure (SMILES): C[C@H]1OC(=O)[C@@H]2CC3(NC(=O)NC3=O)[C@@H](C)[C@H](c3ccc(-c4cccc(F)c4)cn3)[C@H]12 (stereo partly specified)
IC50 [1]: 178 nM

Structure (SMILES): C[C@H]1OC(=O)[C@]2(O)CC(F)(F)[C@@H](C)[C@H](/C=C/c3ccc(-c4ccccc4C#N)cn3)[C@H]12
MRT [5]: > 20 h | MRT [6]: 20 h

Structure (SMILES): CC1=NO[C@@]2(C1)C[C@H]1C(=O)O[C@H](C)[C@H]1[C@@H](c1ccc(-c3cccc(F)c3)cn1)[C@@H]2C
IC50 [1]: 134 nM

Structure (SMILES): C[C@@H]1[C@@H](C)[C@@H]2CN(C)C[C@@]23C(=O)O[C@H](C)[C@H]3[C@H]1/C=C/c1ccc(-c2ccccc2C#N)cn1
IC50 [1]: 28 nM | IC50 [2]: 14800 nM

Structure (SMILES): CC[C@H]1[C@H](/C=C/c2ccc(-c3ccccc3C#N)cn2)[C@@H]2[C@@H](C)OC(=O)[C@]2(O)CC1(F)F
IC50 [1]: 8 nM | MRT [5]: > 20 h | IC50 [2]: 17000 nM | MRT [6]: 5.5 h

Now from value to compound, other results behind:

IC50 [1]: 4 nM
Structure (SMILES): CCOC(=O)N1C[C@H]2[C@H](C)[C@@H](C)[C@H](/C=C/c3ccc(-c4ccccc4C#N)cn3)[C@@H]3[C@@H](C)OC(=O)[C@@]32C1
IC50 [2]: 1600 nM

IC50 [1]: 5 nM
Structure (SMILES): C[C@H]1OC(=O)[C@@H]2CC(F)(F)[C@@H](C)[C@H](c3ccc(-c4cccc(F)c4)cn3)[C@H]12

IC50 [1]: 6 nM | MRT [3]: 38.4 h | MRT [4]: 2.7 h
Structure (SMILES): C[C@H]1NC(=O)[C@]2(N)CC(F)(F)[C@@H](C)[C@H](/C=C/c3ccc(-c4ccccc4C#N)cn3)[C@H]12
IC50 [2]: 33000 nM

MRT [8]: 2.3 h | Vd [9]: 3.1 L/kg | IC50 [1]: 3 nM | MRT [3]: 3.2 h | MRT [10]: 3 h | CLint [11]: 41.7 µL/min/1e6 cells | clearance [12]: 37 mL/min/kg | CL free [13]: 344 mL/min/kg | Vdu [14]: 115 L/kg | MRT [6]: 2.2 h | bioavailability [15]: 44% | Vdu [16]: 171 L/kg | CLint [17]: 11.4 µL/min/1e6 cells | Papp [18]: 41.9 ×10⁻⁶ cm/s | Vd [19]: 1.5 L/kg | CLint [20]: 2.3 µL/min/1e6 cells | efflux ratio (P-glycoprotein (ABCB1)): 1.5 | fraction unbound [21]: 0.02 | bioavailability [22]: 57% | fraction unbound [23]: 0.02 | clearance [25]: 8.6 mL/min/kg | CLint [26]: 4.3 µL/min/1e6 cells | fraction unbound [27]: 0.03 | efflux ratio (P-glycoprotein): 3.3 | CL free [28]: 1238 mL/min/kg | clearance [29]: 26 mL/min/kg | bioavailability [30]: 5% | MRT [31]: 1.4 h | Vdu [32]: 60 L/kg | CL free [34]: 1370 mL/min/kg
Structure (SMILES): Cc1cccc(-c2ccc(/C=C/[C@@H]3[C@@H]4[C@@H](C)OC(=O)[C@]4(O)CC(F)(F)[C@H]3C)nc2)c1C#N
inhibition in vivo at 1 mg/kg [7]: 100% | IC50 [2]: 9000 nM | inhibition in vivo at 0.3 mg/kg [24]: 100% | IC50 [33]: 9000 nM

MRT [8]: 6.2 h | Vd [9]: 1.2 L/kg | IC50 [1]: 7 nM | MRT [10]: 1.8 h | CLint [11]: 11.8 µL/min/1e6 cells | clearance [12]: 46 mL/min/kg | CL free [13]: 140 mL/min/kg | Vdu [14]: 19 L/kg | bioavailability [15]: 10% | Vdu [16]: 42 L/kg | CLint [17]: 19.7 µL/min/1e6 cells | Papp [18]: 32.3 ×10⁻⁶ cm/s | Vd [19]: 0.81 L/kg | CLint [20]: 17.2 µL/min/1e6 cells | efflux ratio (P-glycoprotein (ABCB1)): > 65 | fraction unbound [21]: 0.06 | bioavailability [22]: 13% | fraction unbound [23]: 0.05 | clearance [25]: 7.7 mL/min/kg | CLint [26]: 7.3 µL/min/1e6 cells | fraction unbound [27]: 0.06 | efflux ratio (P-glycoprotein): > 71 | CL free [28]: 112 mL/min/kg | clearance [29]: 5.6 mL/min/kg | bioavailability [30]: 19% | MRT [31]: 0.44 h | Vdu [32]: 15 L/kg | CL free [34]: 742 mL/min/kg
Structure (SMILES): CCNC(=O)N1C[C@H]2[C@H](C)[C@@H](C)[C@H](/C=C/c3ccc(-c4ccccc4C#N)cn3)[C@@H]3[C@@H](C)OC(=O)[C@@]32C1
inhibition in vivo at 1 mg/kg [7]: 100% | IC50 [2]: 9200 nM | inhibition in vivo at 0.3 mg/kg [24]: 100% | IC50 [33]: 9000 nM

IC50 [1]: 3 nM
Structure (SMILES): C[C@H]1[C@H](c2ccc(-c3cccc(F)c3)cn2)[C@@H]2[C@@H](C)OC(=O)[C@@H]2C[C@@H]1C

IC50 [1]: 8 nM | MRT [5]: 68 h
Structure (SMILES): C[C@H]1OC(=O)[C@]2(O)CC(F)(F)[C@@H](C)[C@H](/C=C/c3ccc(-c4cccc(F)c4)cn3)[C@H]12
IC50 [2]: 29000 nM

IC50 [1]: 7 nM
Structure (SMILES): CNC(=O)N1C[C@H]2[C@H](C)[C@@H](C)[C@H](/C=C/c3ccc(-c4ccccc4C#N)cn3)[C@@H]3[C@@H](C)OC(=O)[C@@]32C1
IC50 [2]: 50000 nM
